Assays:
[1] = molecular target: T1, peroxidasin (Mus musculus, UniProt Q3UQ28); assay: In vitro basement membrane (uncrosslinked PFHR-9 matrix) reaction with halides and H2O2; type: biochemical; settings: for S═N bond formation in isolated matrix: 10 mM phosphate pH 7.4, 100 mM KF, 1 mM H2O2, 1 h at 37° C.
T1 construct: Cultured murine PFHR9 cells synthesize collagen IV networks that contain sulfilimine crosslinks due to the activity of PXDN; endogenous in cells; host or cells: PFHR-9 cells (isolated matrix from KI-treated culture)
T1 sequence (Q3UQ28 24-1475): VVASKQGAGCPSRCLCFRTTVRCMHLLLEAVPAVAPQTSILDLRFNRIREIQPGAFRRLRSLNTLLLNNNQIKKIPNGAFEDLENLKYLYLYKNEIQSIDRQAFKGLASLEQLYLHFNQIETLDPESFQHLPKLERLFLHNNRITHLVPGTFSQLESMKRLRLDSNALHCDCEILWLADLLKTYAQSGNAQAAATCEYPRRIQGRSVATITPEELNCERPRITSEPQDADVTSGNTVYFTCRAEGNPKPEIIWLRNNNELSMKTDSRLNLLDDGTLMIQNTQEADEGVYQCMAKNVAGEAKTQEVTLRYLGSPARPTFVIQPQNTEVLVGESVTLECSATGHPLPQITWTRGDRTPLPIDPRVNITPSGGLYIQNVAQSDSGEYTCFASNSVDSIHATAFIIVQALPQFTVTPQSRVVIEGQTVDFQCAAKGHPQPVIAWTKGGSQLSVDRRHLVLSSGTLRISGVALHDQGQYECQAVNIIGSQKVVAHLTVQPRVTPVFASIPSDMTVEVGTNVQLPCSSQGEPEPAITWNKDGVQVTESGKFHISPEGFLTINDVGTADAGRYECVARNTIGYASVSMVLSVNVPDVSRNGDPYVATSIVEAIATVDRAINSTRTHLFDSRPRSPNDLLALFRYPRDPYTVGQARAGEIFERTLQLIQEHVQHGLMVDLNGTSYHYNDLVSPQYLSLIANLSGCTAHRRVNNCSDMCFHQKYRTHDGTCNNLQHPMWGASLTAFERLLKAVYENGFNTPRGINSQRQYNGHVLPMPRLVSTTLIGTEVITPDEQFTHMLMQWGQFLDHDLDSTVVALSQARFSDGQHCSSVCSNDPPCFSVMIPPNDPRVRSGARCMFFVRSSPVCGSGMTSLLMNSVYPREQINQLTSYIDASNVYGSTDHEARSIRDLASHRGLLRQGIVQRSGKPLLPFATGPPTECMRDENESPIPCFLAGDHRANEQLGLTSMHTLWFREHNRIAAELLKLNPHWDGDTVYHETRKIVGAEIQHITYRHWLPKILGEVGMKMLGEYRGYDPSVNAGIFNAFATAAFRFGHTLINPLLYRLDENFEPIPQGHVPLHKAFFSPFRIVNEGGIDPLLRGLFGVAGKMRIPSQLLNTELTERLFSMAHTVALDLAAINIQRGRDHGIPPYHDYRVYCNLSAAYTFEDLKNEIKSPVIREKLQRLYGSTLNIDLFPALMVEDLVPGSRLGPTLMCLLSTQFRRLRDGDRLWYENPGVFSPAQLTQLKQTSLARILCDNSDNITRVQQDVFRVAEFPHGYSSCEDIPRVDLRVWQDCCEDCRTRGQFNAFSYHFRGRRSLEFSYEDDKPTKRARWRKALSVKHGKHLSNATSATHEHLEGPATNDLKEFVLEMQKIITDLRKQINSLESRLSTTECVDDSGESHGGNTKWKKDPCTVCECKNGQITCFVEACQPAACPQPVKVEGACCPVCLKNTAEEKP
Procedure: (FIG. 8A) Matrix pellets isolated from KI-treated PFHR9 cell culture were extensively washed into 10 mM phosphate buffer (pH 7.4) supplemented with 100 mM KF to maintain ionic strength. Potassium salts of Cl— or Br— were added in indicated amounts. 1 hr reactions at 37° C. were initiated by addition of H2O2 to 1 mM and stopped by freezing at −20° C. Coomassie blue-stained gels after collagenase digestion of the samples and SDS-PAGE (FIG. 8B) Schematic of Br-Free chloride salt purification apparatus and setup. […] Reagent KCl was commercially obtained and unaltered prior to analysis. 100 mM solutions were made with 18MΩ deionized water. (FIG. 8C) Coomassie blue stained gel of collagenase digested PFHR-9 matrix reaction assay. Reaction buffered contained 10 mM phosphate buffer (pH 7.4), 100 mM Br-Free or Commercially obtained reagent grade KCl, as well as 1 mM H2O2 and 200 μM PHG where appropriate. (FIG. 8D) SDS-PAGE and coomassie blue stain of hPXDN (27.25 nM) and NC1 domain (1.3 μM) reaction and subsequent densiometric quantitation of S═N bond formation stiochiometry in response to NaBr addition. hPXDN and PFHR-9 NC1 domain were prepared and purified as described (5), except with all buffers for all purification steps (dialysis, chromatography, gradient ultracentrifugation) made with Br-Free chloride salts. Reactions were run for 10 minutes at 37° C. with 10 μM H2O2 as the terminal oxidant. Dose-response curve run in the presence of 1× Br-Free PBS. Reactions were quenched with 0.2 mg/ml Catalase, 20 mM Methionine, and 1 mM PHG. EC50 value±95% C.I. from two independent experiments with each data point plotted and fit.
Uncrosslinked PFHR9 matrix was extensively washed into 10 mM phosphate buffer (pH 7.4) that was supplemented with 100 mM KF to maintain ionic strength. One hour reactions at 37° C. were initiated by addition of H2O2 to 1 mM and stopped by freezing at −20° C. […] Samples were digested with collagenase at 37° C. overnight and visualized by SDS-PAGE using 12% gels under non-reducing conditions with Coomassie staining.
PFHR-9 cells treated with potassium iodide (1-10 mM) to eliminate NC1 hexamer crosslinks were used for basement membrane isolation. To test halide dependency, the inventors established halide-free conditions by washing extensively (at least five times) with 10 mM sodium phosphate pH 7.4. To try to extract or inactivate endogenous basement membrane peroxidase activity, the inventors extracted the matrix preparation twice with 2M guanidine-Cl, 50 mM Tris-Cl pH 7.5 and 10 mM EDTA-Na pH 8 followed by extensive washing with 1×PBS. Basement membrane was resuspended in the desired buffer with or without cofactors and inhibitors to examine in vitro NC1 crosslinking under various conditions. Basement membranes were collagenase solubilized to delineate collagen IV NC1 sulfilimine crosslink formation with SDS-PAGE and Coomassie blue staining membrane was isolated, washed extensively and resuspended in 1×PBS. Azide (0-10 mM) and 1 mM H2O2 were added and allowed to react for 1 h at 37° C. The matrix was pelleted, washed extensively with 1×PBS and solubilized with 1×PBS plus 2% (w/v) SDS. Solubilized proteins were reacted with 100 μM Tris[(1-benzyl-1H-1,2,3-triazol-4-yl)methyl]amine (Anaspec), 1 mM Tris(2-carboxyethyl)phosphine hydrochloride (ThermoFisher Pierce), 1 mM cupric sulfate and 100 μM biotin alkyne (PEG4 carboxamide-propargyl biotin; Life Technologies) for 1 h at 37° C. Click chemistry reactions were quenched with 1 mM 3′-azido-3′-deoxythymidine (Sigma). For avidin-HRP detection, samples were electrophoresed under reducing conditions, transferred to nitrocellulose membranes and probed with streptavidin-HRP according to manufacturer instructions (ThermoFisher Pierce). To isolate biotinylated proteins, the inventors precipitated click reaction products with two volumes of cold acetone to remove reactants, washed them with 70% (v/v) acetone and then resolubilized them in 1×PBS plus 2% SDS.

[2] = system: PFHR-9 cells; assay: Collagen IV sulfilimine crosslink formation in PFHR-9 cell culture (NC1 hexamer, SDS-PAGE); type: cell-based, mouse; settings: for effect on NC1 dimer / crosslink formation in culture: PFHR9 matrix grown 5-8 days with potassium halide salts, SDS-PAGE; for IC50: halide/pseudohalide screen in cell culture, read-out: IC50, inhibition of S═N formation
[3] = molecular target: T2, collagen IV NC1 hexamer (Mus musculus, UniProt P02463+P08122); assay: Hypohalous acid oxidation of purified uncrosslinked NC1 hexamer; settings: for effect of pretreatment on S═N bond formation by HOBr: NC1 hexamer pretreated with the substance, then treated with HOBr; for crosslinked dimeric subunits (percentage of dimeric subunit): 500 nM NC1 hexamer, 5 μM hypohalous acid, 30 min at 37° C. (FIG. 4A)
T2 sequence (P02463 1445-1669 limits assumed): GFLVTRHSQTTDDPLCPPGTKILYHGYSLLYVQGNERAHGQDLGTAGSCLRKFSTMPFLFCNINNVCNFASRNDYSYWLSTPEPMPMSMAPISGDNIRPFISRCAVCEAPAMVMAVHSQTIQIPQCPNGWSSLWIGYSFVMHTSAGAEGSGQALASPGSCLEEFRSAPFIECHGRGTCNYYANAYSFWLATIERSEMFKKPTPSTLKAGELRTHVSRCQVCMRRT
T2 sequence (P08122 1484-1707 limits assumed): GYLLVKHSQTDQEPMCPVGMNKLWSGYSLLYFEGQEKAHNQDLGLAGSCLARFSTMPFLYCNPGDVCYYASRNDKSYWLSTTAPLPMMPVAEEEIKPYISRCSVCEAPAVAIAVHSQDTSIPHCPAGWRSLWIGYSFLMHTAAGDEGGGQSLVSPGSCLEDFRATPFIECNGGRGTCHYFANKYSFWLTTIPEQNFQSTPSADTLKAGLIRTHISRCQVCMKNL
Procedure: (FIG. 4A) Five hundred nanomolar collagen IV NC1 hexamer (3 μM potential crosslinks) was incubated alone (control) or with 5 μM hypochlorous (HOCl) or hypobromous acid (HOBr) for 30 min at 37° C. […] (FIGS. 4B-D) 16 nM myeloperoxidase (MPO) (FIG. 4B), eosinophil peroxidase (EPO) (FIG. 4C) or lactoperoxidase (LPO) (FIG. 4D) were reacted with 500 nM NC1 hexamer (3 μM potential crosslinks) for varying time points in 1×PBS with or without 10 μM H2O2. In the case of LPO, all reactions proceeded for 60 min. Collagen IV-sulfilimine crosslink content was visualized after SDS-PAGE and Coomassie blue staining of the reactions. Each gel is representative of three independent experiments. PHG, phloroglucinol; MW, molecular weight.
FIGS. 9A-D. Chemical mechanism of sulfilimine formation within the NC1 hexamer. (FIG. 9A) Purified uncrosslinked NC1 hexamer (5 μM) was reacted for 5 minutes at 37° with the indicated amounts of hypohalous acids and analyzed by SDS-PAGE. […] Values represent mean±S.D. (n=3). (FIG. 7B) Uncrosslinked NC1 hexamer (1.3 μM) in Br-Free PBS was preoxidzed with indicated amounts of HOCl for 1 min at 37 C, followed by post-oxidation with the addition of 8 mol eq. HOBr (or HOCl as a control) which was reacted for an additional minute at 37° C., then quenched with 20 mM methionine. Gel is representative of two experiments (FIG. 9C) XIC analysis of the residual monomeric NC1 subunit following HOCl oxidation (10 mol eq) compared to input NC1 monomer after SDS-PAGE and in-gel trypsin digestion. ^16O addition to the methionine residues was confirmed by MS3 analysis. (FIG. 9D) Met93 oxidation pathway consistent with experimental data and the resultant enthalphic landscape for S═N bond formation within the NC1 hexamer.
(FIG. 15) Fifty micromolar of hypohalous oxidants were added to 5 μM uncrosslinked NC1 domains, and reacted for 5 minutes at 37° C. before quenching by adding L-methionine to 1 mM final concentration. […] Experiments were run in triplicate and analyzed by 12% non-reducing SDS-PAGE and ImageJ.
The efficiency of HOBr as a reagent was compared to other hypohalous acids, during a 5′ reaction with uncrosslinked hexamers containing 5 μM NC1 domains.
The inventors therefore tested the molar efficiency of oxidation of purified uncrosslinked NC1 hexamer with HOCl and HOBr (FIG. 9A). […] To test this, they pretreated uncrosslinked NC1 hexamer with varying concentrations of HOCl, then treated with HOBr. […] As an independent approach to testing the dead-end sulfoxide hypothesis, the inventors pretreated NC1 hexamer with escalating levels of H2O2, a reagent known to generate methionine sulfoxides (Liang et al., 2012). […] They next decided to directly visualize the peptide containing Met93, the S donor of the S═N bond, within the residual monomeric NC1 fraction after HOCl oxidation and compare its oxidation status to untreated NC1 hexamer.

[4] = matrix grown 5-8 days with potassium salts, 95% CI

[F-].[K+] [Fluoride, potassium fluoride]
S═N bond formation in isolated matrix [1]: inert

[Br-].[K+] [KBr, potassium bromide]
effect on NC1 dimer / crosslink formation in culture [2]: dimer enhancement | EC50 ([2]; halide screen in cell culture, matrix grown 5-8 days with potassium salts, 95% CI, read-out: EC50, enhancement of S═N formation): 75 µM

[I-].[K+] [potassium iodide]
effect on NC1 dimer / crosslink formation in culture [2]: dimer inhibition | IC50 [2, 4]: 84 µM | formation of collagen IV crosslinks ([2]; inhibitor present during cellular deposition of basement membrane, FIG. 2A: PHG 50 μM, MMI 1 mM, KI 10 mM, 3-AT 10 mM, BAPN 500 μM, putrescine 2.5 mM): inhibited collagen IV crosslink formation | S═N bond formation in isolated matrix [1]: demonstrated no S═N formation | S═N bond formation in isolated matrix ([1]; listed as KI): did not faciliate crosslinking

OO [H2O2, hydrogen peroxide]
sulfilimine bond formation in isolated basement membrane ([1]; inhibitor removed, with versus without H2O2 (FIG. 2C)): Sulfilimine bonds formed rapidly | effect of pretreatment on S═N bond formation by HOBr [3]: dose-dependent decrease in the crosslinking efficacy of HOBr

N#C[S-].[K+] [KSCN, potassium thiocyanate]
effect on NC1 dimer / crosslink formation in culture [2]: dimer inhibition | effect on NC1 dimer / crosslink formation in culture ([2]; listed as SCN^−): potent inhibitor of peroxidasin-mediated crosslink formation | IC50 [2, 4]: 17 µM

OCl [HOCl, hypochlorous acid]
crosslinked dimeric subunits (percentage of dimeric subunit) [3]: increased significantly | crosslinked dimeric subunits (percentage of dimeric subunit) ([3]; listed as hypochlorous acid): yielded crosslinked dimeric subunits | concentration required to drive S═N bond formation ([3]; 5 μM NC1 hexamer, 5 minutes at 37° (FIG. 9A)): 50 µM | effect of pretreatment on S═N bond formation by HOBr [3]: decreased with pretreatment of increasing levels of HOCl | S═N bond formation as share of total Met93 oxidized ([3]; oxidation event 1 (OE1), S—Cl or S—Br halosulfonium intermediate): 19%

[Cl-].[K+] [Br-free KCl, KCl]
dimer formation with bromide-free chloride as halide source ([1]; 100 mM Br-free chloride salt, 1 mM H2O2, isolated PFHR-9 matrix): did not support dimer formation to levels comparable with untreated controls
